From PMC10692386 (Acta Pharmaceutica Sinica. B, 2023)

Columns and labels:
WT HIV-1 = assay: Anti-HIV-1 activity in MT-4 cells infected with HIV-1; format: cell-based; conditions: for EC50: Human immunodeficiency virus 1, MT4; for SI: selectivity index, the ratio of CC50/EC50, WT HIV-1
[1] = Cytotoxicity in mock-infected MT-4 cell cultures; format: cell-based; conditions: human, mock-infected MT-4 cells

| EC50 (WT HIV-1) [µM] | SMILES | SI (WT HIV-1) | CC50 [1] [µM] |
| --- | --- | --- | --- |
| 6.76 ± 1.07 | Cc1ncccc1Oc1c(C(F)(F)F)ccn(Cc2n[nH]c(=O)n2C)c1=O [7i] | >49 | > 328 |
| > 192 | Cn1c(Cn2ccc(C(F)(F)F)c(Oc3cc(Cl)c4ncccc4c3)c2=O)n[nH]c1=O [7ak] | <1 | 192 ± 42.9 |
| > 250 | Cc1ncc(Oc2c(C(F)(F)F)ccn(Cc3n[nH]c(=O)n3C)c2=O)cn1 [7t] | >1 | > 250 |
| 11.2 ± 2.83 | Cn1c(Cn2ccc(C(F)(F)F)c(Oc3ccc4cnccc4c3)c2=O)n[nH]c1=O [7ai] | >27 | > 299 |
| > 220 | Cc1cc(Oc2c(C(F)(F)F)ccn(Cc3n[nH]c(=O)n3C)c2=O)c2cccc(F)c2n1 [7aa] | <1 | 220 ± 44.4 |
| > 151 | Cc1cc(Oc2c(C(F)(F)F)ccn(Cc3n[nH]c(=O)n3C)c2=O)c2cccc(C)c2n1 [7ac] | <1 | 151 ± 27.9 |
| 1.27 ± 0.36 | Cc1cc(Oc2c(C(F)(F)F)ccn(Cc3n[nH]c(=O)n3C)c2=O)cnc1Br [7o] | >214 | > 272 |
| 46.7 ± 12.5 | Cn1c(Cn2ccc(C(F)(F)F)c(Oc3ccc4nc(Cl)ccc4c3)c2=O)n[nH]c1=O [7al] | 3.68 | 172 ± 44.9 |
| 21.1 ± 5 | Cc1ccc(Oc2c(C(F)(F)F)ccn(Cc3n[nH]c(=O)n3C)c2=O)cn1 [7j] | – | > 328 |
| > 250 | Cn1c(Cn2ccc(C(F)(F)F)c(Oc3cnc4ccccc4c3)c2=O)n[nH]c1=O [7ag] | >1 | > 250 |
| > 250 | CCc1nc(C)ccc1Oc1c(C(F)(F)F)ccn(Cc2n[nH]c(=O)n2C)c1=O [7n] | – | 299 ± 3.74 |
| 252 ± 5.75 | Cn1c(Cn2ccc(C(F)(F)F)c(Oc3ccc4ncccc4c3)c2=O)n[nH]c1=O [7ah] | >1 | > 299 |
| 33.3 ± 9.61 | Cc1cc(Oc2c(C(F)(F)F)ccn(Cc3n[nH]c(=O)n3C)c2=O)c2c(Cl)c(F)ccc2n1 [7af] | 2.45 | 81.5 ± 11.7 |
| > 250 | Cc1ccc(Oc2c(C(F)(F)F)ccn(Cc3n[nH]c(=O)n3C)c2=O)c(C)n1 [7m] | <1 | > 250 |
| > 250 | Cc1ccc(Oc2c(C(F)(F)F)ccn(Cc3n[nH]c(=O)n3C)c2=O)c(Br)n1 [7l] | <1 | 253 ± 16.8 |
| 4.27 ± 0.75 | Cn1c(Cn2ccc(C(F)(F)F)c(Oc3cccnc3Cl)c2=O)n[nH]c1=O [7b] | 67.97 | 290 ± 24.1 |
| 4.44 ± 0.94 | Cn1c(Cn2ccc(C(F)(F)F)c(Oc3cccnc3Br)c2=O)n[nH]c1=O [7f] | 61.07 | 270.9 ± 1.77 |
| > 250 | Cn1c(Cn2ccc(C(F)(F)F)c(Oc3ccc(C(F)(F)F)nc3)c2=O)n[nH]c1=O [7r] | >1 | > 250 |
| 35.6 ± 10.3 | Cn1c(Cn2ccc(C(F)(F)F)c(Oc3ccc(Cl)nc3)c2=O)n[nH]c1=O [7c] | >9 | > 311 |
| 1.23 ± 0.28 | Cn1c(Cn2ccc(C(F)(F)F)c(Oc3cccc4ccncc34)c2=O)n[nH]c1=O [7x] | >244 | > 299 |
| > 164 | Cn1c(Cn2ccc(C(F)(F)F)c(Oc3ccc4cccnc4c3Br)c2=O)n[nH]c1=O [7am] | <1 | 164 ± 25.5 |
| 2.02 ± 0.88 | Cn1c(Cn2ccc(C(F)(F)F)c(Oc3cnc(Cl)c(Cl)c3)c2=O)n[nH]c1=O [7d] | 122.98 | 248 ± 28.2 |
| 7.33 ± 5.03 | COc1cncc(Oc2c(C(F)(F)F)ccn(Cc3n[nH]c(=O)n3C)c2=O)c1 [7q] | >43 | > 250 |
| 1.22 ± 0.24 | Cn1c(Cn2ccc(C(F)(F)F)c(Oc3cccnc3)c2=O)n[nH]c1=O [7s] | >278 | > 367 |
| 1.46 ± 0.54 | Cc1cc(Oc2c(C(F)(F)F)ccn(Cc3n[nH]c(=O)n3C)c2=O)cnc1F [7p] | – | > 250 |
